Test results taken from patent publication US10414811B2, “Protease-resistant lipidated GLP-1 analogs” (MEDIMMUNE LIMITED, priority 2015, dated 2019).
Read-outs that look alike come from different tables or passages of the source. Numbered stars: 1 amine (or outer) side, 2 acyl side, 3 side chain; on linkers, the order of the positions; unused ones are H or OH. Square brackets hold non-standard residues; d marks the D form. Side chains are listed from the residue outwards. Peptide text beside a SMILES is read from it. * marks the point of attachment. C18 diacid = O=C(O)CCCCCCCCCCCCCCCCC(=O)*; γGlu = O=C(O)[C@H](CCC(=O)[*:2])N[*:1]; αMeF = C[C@](N)(Cc1ccccc1)C(=O)O; αMeK = C[C@](N)(CCCCN)C(=O)O; αMeS = C[C@](N)(CO)C(=O)O; AEEA = NCCOCCOCC(=O)O; Aib = CC(C)(N)C(=O)O

How the values were obtained:
Format in all cases: cell-based
[1] = target: T1, human glucagon receptor (GCGR) (Homo sapiens, UniProt P47871); experiment: cAMP assay, human GCGR cells; details: cAMP assay
T1 construct: expressed in transfected cells
Method in brief: (§1)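 Peptide-stimulated cAMP measured by two-step HTRF after a 30 min room-temperature incubation with receptor-expressing cells (hGLP-1R, hGIPR at 1×10^5 cells/ml; hGCGR at 2×10^5 cells/ml). Duplicate dilutions; EC50 from 4-parameter logistic fit of % Delta F.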

[2] = target: T2, human GLP-1 receptor (GLP-1R) (Homo sapiens, UniProt P43220); experiment: cAMP assay, human GLP-1R cells
T2 construct: expressed in transfected cells
Method in brief: as §1

[3] = target: T3, human glucose-dependent insulinotropic peptide receptor (GIPR) (Homo sapiens, UniProt P48546); experiment: cAMP assay, human GIPR cells; details: cAMP assay
T3 construct: expressed in transfected cells
T3 sequence (P48546 22-466): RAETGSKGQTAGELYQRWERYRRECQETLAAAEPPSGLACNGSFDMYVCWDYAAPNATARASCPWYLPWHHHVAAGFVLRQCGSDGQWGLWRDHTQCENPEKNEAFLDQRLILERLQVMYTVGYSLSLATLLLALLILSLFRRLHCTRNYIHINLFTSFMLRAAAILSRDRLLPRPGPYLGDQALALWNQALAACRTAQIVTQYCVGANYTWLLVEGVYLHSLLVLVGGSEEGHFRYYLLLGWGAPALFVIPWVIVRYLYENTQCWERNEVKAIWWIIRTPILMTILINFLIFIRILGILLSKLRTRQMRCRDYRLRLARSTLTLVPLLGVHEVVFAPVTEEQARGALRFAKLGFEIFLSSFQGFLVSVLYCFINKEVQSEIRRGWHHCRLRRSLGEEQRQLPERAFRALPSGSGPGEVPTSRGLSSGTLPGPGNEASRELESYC
Method in brief: as §1

[4] = first determination (n1), read-out: Primary assay EC50 Gluc-R (n1)
[5] = second determination (n2), read-out: Primary assay EC50 Gluc-R (n2)
[6] = cAMP assay, first determination (n1), read-out: Primary assay EC50 GLP-1R n1
[7] = cAMP assay, second determination (n2), read-out: Primary assay EC50 GLP-1R n2
[8] = mean of n1 and n2, read-out: Mean pM GLP-1R
[9] = first determination (n1), read-out: Primary assay EC50 GIP-R (n1)
[10] = second determination (n2), read-out: Primary assay EC50 GIP-R (n2)

T2 sequence (P43220 24-463): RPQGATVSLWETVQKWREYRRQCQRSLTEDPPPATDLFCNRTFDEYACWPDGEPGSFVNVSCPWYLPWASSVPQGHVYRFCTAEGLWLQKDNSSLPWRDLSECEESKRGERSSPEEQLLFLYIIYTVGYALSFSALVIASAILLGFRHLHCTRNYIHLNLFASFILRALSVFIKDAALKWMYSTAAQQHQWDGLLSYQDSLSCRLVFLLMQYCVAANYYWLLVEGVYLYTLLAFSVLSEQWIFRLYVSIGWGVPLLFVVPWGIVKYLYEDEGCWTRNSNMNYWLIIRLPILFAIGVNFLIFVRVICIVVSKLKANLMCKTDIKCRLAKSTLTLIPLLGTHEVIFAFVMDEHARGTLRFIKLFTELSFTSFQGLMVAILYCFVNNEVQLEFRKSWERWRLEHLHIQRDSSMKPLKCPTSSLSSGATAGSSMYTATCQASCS
T1 sequence (P47871 26-477): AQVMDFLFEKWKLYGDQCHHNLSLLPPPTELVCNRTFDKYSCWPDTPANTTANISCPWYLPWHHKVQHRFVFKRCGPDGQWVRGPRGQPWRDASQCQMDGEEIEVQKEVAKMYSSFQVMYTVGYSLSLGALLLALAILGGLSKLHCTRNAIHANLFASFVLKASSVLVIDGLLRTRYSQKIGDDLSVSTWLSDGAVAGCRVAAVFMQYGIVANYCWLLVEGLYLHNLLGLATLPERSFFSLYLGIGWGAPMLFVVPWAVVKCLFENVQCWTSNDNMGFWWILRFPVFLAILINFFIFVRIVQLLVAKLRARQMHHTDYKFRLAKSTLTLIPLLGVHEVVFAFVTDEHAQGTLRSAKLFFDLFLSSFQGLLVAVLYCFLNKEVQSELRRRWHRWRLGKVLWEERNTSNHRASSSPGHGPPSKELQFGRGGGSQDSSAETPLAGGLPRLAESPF

EC50 [1, 4] [µM] | EC50 [1, 5] [µM] | EC50 [2, 6] [pM] | EC50 [2, 7] [pM] | EC50 [2, 8] [pM] | EC50 [3, 9] [µM] | EC50 [3, 10] [µM] | SMILES
≥ 0.028 | ≥ 0.028 | ≥ 28000 | ≥ 28000 | ≥ 27500 | ≥ 0.028 | ≥ 0.028 | CCCCCCCCCCCCCCCC(=O)N[C@@H](CCC(=O)NCCCC[C@H](NC(=O)[C@@H](N)Cc1c[nH]cn1)C(=O)N[C@@H](CCC(=O)O)C(=O)NCC(=O)N[C@@H](CO)C(=O)N[C@@](C)(Cc1ccccc1)C(=O)N[C@H](C(=O)N[C@@H](CO)C(=O)N[C@@H](CC(=O)O)C(=O)N[C@H](C(=O)N[C@@](C)(CO)C(=O)N[C@@H](CO)C(=O)N[C@@](C)(Cc1ccccc1)C(=O)N[C@@H](CC(C)C)C(=O)N[C@@H](CCC(=O)O)C(=O)NCC(=O)N[C@@H](CCC(=O)O)C(=O)N[C@@H](C)C(=O)N[C@@H](C)C(=O)N[C@@](C)(CCCCN)C(=O)N[C@@H](CCC(=O)O)C(=O)N[C@@](C)(Cc1ccccc1)C(=O)N[C@H](C(=O)N[C@@H](C)C(=O)N[C@@](C)(Cc1ccccc1)C(=O)N[C@H](C(=O)N[C@H](C(=O)N[C@@](C)(CCCCN)C(=O)NCC(=O)NCC(N)=O)C(C)C)C(C)C)[C@@H](C)CC)C(C)C)[C@@H](C)O)C(=O)O [compound 98]
≥ 0.026 | ≥ 0.0256 | 4900 | 4430 | 4660 | ≥ 0.026 | ≥ 0.0256 | CC[C@H](C)[C@H](NC(=O)[C@](C)(Cc1ccccc1)NC(=O)[C@H](CCC(=O)O)NC(=O)[C@](C)(CCCCN)NC(=O)[C@H](C)NC(=O)[C@H](C)NC(=O)[C@H](CCC(=O)O)NC(=O)CNC(=O)[C@H](CCC(=O)O)NC(=O)[C@H](CC(C)C)NC(=O)[C@](C)(Cc1ccccc1)NC(=O)[C@H](CO)NC(=O)[C@](C)(CO)NC(=O)[C@@H](NC(=O)[C@H](CC(=O)O)NC(=O)[C@H](CO)NC(=O)[C@@H](NC(=O)[C@H](CCCCNC(=O)COCCOCCNC(=O)COCCOCCNC(=O)CC[C@H](NC(=O)CCCCCCCCCCCCCCCCC(=O)O)C(=O)O)NC(=O)[C@H](CO)NC(=O)CNC(=O)[C@H](CCC(=O)O)NC(=O)C(C)(C)NC(=O)[C@@H](N)Cc1c[nH]cn1)[C@@H](C)O)C(C)C)C(=O)N[C@@H](C)C(=O)N[C@@](C)(Cc1ccccc1)C(=O)N[C@H](C(=O)N[C@H](C(=O)N[C@@](C)(CCCCN)C(=O)NCC(=O)NCC(N)=O)C(C)C)C(C)C [compound 123]
≥ 0.025 | ≥ 0.0251 | ≥ 25000 | ≥ 25100 | ≥ 25100 | ≥ 0.025 | ≥ 0.0251 | CC[C@H](C)[C@H](NC(=O)[C@](C)(Cc1ccccc1)NC(=O)[C@H](CCC(=O)O)NC(=O)[C@](C)(CCCCN)NC(=O)[C@H](C)NC(=O)[C@H](C)NC(=O)[C@H](CCC(=O)O)NC(=O)CNC(=O)[C@H](CCC(=O)O)NC(=O)[C@H](CC(C)C)NC(=O)[C@](C)(Cc1ccccc1)NC(=O)[C@H](CO)NC(=O)[C@](C)(CO)NC(=O)[C@@H](NC(=O)[C@H](CC(=O)O)NC(=O)[C@H](CO)NC(=O)[C@@H](NC(=O)[C@](C)(Cc1ccccc1)NC(=O)[C@H](CCCCNC(=O)COCCOCCNC(=O)COCCOCCNC(=O)CC[C@H](NC(=O)CCCCCCCCCCCCCCCCC(=O)O)C(=O)O)NC(=O)CNC(=O)[C@H](CCC(=O)O)NC(=O)C(C)(C)NC(=O)[C@@H](N)Cc1c[nH]cn1)[C@@H](C)O)C(C)C)C(=O)N[C@@H](C)C(=O)N[C@@](C)(Cc1ccccc1)C(=O)N[C@H](C(=O)N[C@H](C(=O)N[C@@](C)(CCCCN)C(=O)NCC(=O)NCC(N)=O)C(C)C)C(C)C [compound 124] (H-H[Aib]EGK([AEEA-AEEA-γGlu-C18 diacid])[αMeF]TSDV[αMeS]S[αMeF]LEGEAA[αMeK]E[αMeF]IA[αMeF]VV[αMeK]GG-NH2; N-terminus assumed)
≥ 0.025 | ≥ 0.0249 | ≥ 25000 | ≥ 24900 |  | ≥ 0.025 | ≥ 0.0249 | CC[C@H](C)[C@H](NC(=O)[C@](C)(Cc1ccccc1)NC(=O)[C@H](CCC(=O)O)NC(=O)[C@](C)(CCCCN)NC(=O)[C@H](C)NC(=O)[C@H](C)NC(=O)[C@H](CCC(=O)O)NC(=O)CNC(=O)[C@H](CCC(=O)O)NC(=O)[C@H](CC(C)C)NC(=O)[C@](C)(Cc1ccccc1)NC(=O)[C@H](CO)NC(=O)[C@](C)(CO)NC(=O)[C@@H](NC(=O)[C@H](CC(=O)O)NC(=O)[C@H](CO)NC(=O)[C@@H](NC(=O)[C@](C)(Cc1ccccc1)NC(=O)[C@H](CO)NC(=O)[C@H](CCCCNC(=O)COCCOCCNC(=O)COCCOCCNC(=O)CC[C@H](NC(=O)CCCCCCCCCCCCCCCCC(=O)O)C(=O)O)NC(=O)[C@H](CCC(=O)O)NC(=O)C(C)(C)NC(=O)[C@@H](N)Cc1c[nH]cn1)[C@@H](C)O)C(C)C)C(=O)N[C@@H](C)C(=O)N[C@@](C)(Cc1ccccc1)C(=O)N[C@H](C(=O)N[C@H](C(=O)N[C@@](C)(CCCCN)C(=O)NCC(=O)NCC(N)=O)C(C)C)C(C)C [compound 125] (H-H[Aib]EK([AEEA-AEEA-γGlu-C18 diacid])S[αMeF]TSDV[αMeS]S[αMeF]LEGEAA[αMeK]E[αMeF]IA[αMeF]VV[αMeK]GG-NH2; N-terminus assumed)

The next lines start with the compound.

SMILES | EC50 [1, 4] [µM] | EC50 [1, 5] [µM] | EC50 [2, 6] [pM] | EC50 [2, 7] [pM] | EC50 [2, 8] [pM] | EC50 [3, 9] [µM] | EC50 [3, 10] [µM]
CC[C@H](C)[C@H](NC(=O)[C@](C)(Cc1ccccc1)NC(=O)[C@H](CCC(=O)O)NC(=O)[C@](C)(CCCCN)NC(=O)[C@H](C)NC(=O)[C@H](C)NC(=O)[C@H](CCC(=O)O)NC(=O)CNC(=O)[C@H](CCCCNC(=O)COCCOCCNC(=O)COCCOCCNC(=O)CC[C@H](NC(=O)CCCCCCCCCCCCCCCCC(=O)O)C(=O)O)NC(=O)[C@H](CC(C)C)NC(=O)[C@](C)(Cc1ccccc1)NC(=O)[C@H](CO)NC(=O)[C@](C)(CO)NC(=O)[C@@H](NC(=O)[C@H](CC(=O)O)NC(=O)[C@H](CO)NC(=O)[C@@H](NC(=O)[C@](C)(Cc1ccccc1)NC(=O)[C@H](CO)NC(=O)CNC(=O)[C@H](CCC(=O)O)NC(=O)C(C)(C)NC(=O)[C@@H](N)Cc1c[nH]cn1)[C@@H](C)O)C(C)C)C(=O)N[C@@H](C)C(=O)N[C@@](C)(Cc1ccccc1)C(=O)N[C@H](C(=O)N[C@H](C(=O)N[C@@](C)(CCCCN)C(=O)NCC(=O)NCC(N)=O)C(C)C)C(C)C [compound 114] (H-H[Aib]EGS[αMeF]TSDV[αMeS]S[αMeF]LK([AEEA-AEEA-γGlu-C18 diacid])GEAA[αMeK]E[αMeF]IA[αMeF]VV[αMeK]GG-NH2; N-terminus assumed) | ≥ 0.025 | ≥ 0.0254 | 550 | 458 | 503 | ≥ 0.025 | ≥ 0.0254
CC[C@H](C)[C@H](NC(=O)[C@](C)(Cc1ccccc1)NC(=O)[C@H](CCC(=O)O)NC(=O)[C@](C)(CCCCN)NC(=O)[C@H](C)NC(=O)[C@H](C)NC(=O)[C@H](CCC(=O)O)NC(=O)CNC(=O)[C@H](CCC(=O)O)NC(=O)[C@H](CC(C)C)NC(=O)[C@](C)(Cc1ccccc1)NC(=O)[C@H](CO)NC(=O)[C@](C)(CO)NC(=O)[C@@H](NC(=O)[C@H](CCCCNC(=O)COCCOCCNC(=O)COCCOCCNC(=O)CC[C@H](NC(=O)CCCCCCCCCCCCCCCCC(=O)O)C(=O)O)NC(=O)[C@H](CO)NC(=O)[C@@H](NC(=O)[C@](C)(Cc1ccccc1)NC(=O)[C@H](CO)NC(=O)CNC(=O)[C@H](CCC(=O)O)NC(=O)C(C)(C)NC(=O)[C@@H](N)Cc1c[nH]cn1)[C@@H](C)O)C(C)C)C(=O)N[C@@H](C)C(=O)N[C@@](C)(Cc1ccccc1)C(=O)N[C@H](C(=O)N[C@H](C(=O)N[C@@](C)(CCCCN)C(=O)NCC(=O)NCC(N)=O)C(C)C)C(C)C [compound 120] (H-H[Aib]EGS[αMeF]TSK([AEEA-AEEA-γGlu-C18 diacid])V[αMeS]S[αMeF]LEGEAA[αMeK]E[αMeF]IA[αMeF]VV[αMeK]GG-NH2) | ≥ 0.025 | ≥ 0.0253 | 4100 | 3130 | 3640 | ≥ 0.025 | ≥ 0.0253
CC[C@H](C)[C@H](NC(=O)[C@](C)(Cc1ccccc1)NC(=O)[C@H](CCC(=O)O)NC(=O)[C@](C)(CCCCN)NC(=O)[C@H](C)NC(=O)[C@H](C)NC(=O)[C@H](CCC(=O)O)NC(=O)CNC(=O)[C@H](CCC(=O)O)NC(=O)[C@H](CC(C)C)NC(=O)[C@](C)(Cc1ccccc1)NC(=O)[C@H](CO)NC(=O)[C@](C)(CO)NC(=O)[C@@H](NC(=O)[C@H](CC(=O)O)NC(=O)[C@H](CO)NC(=O)[C@@H](NC(=O)[C@](C)(Cc1ccccc1)NC(=O)[C@H](CO)NC(=O)CNC(=O)[C@H](CCCCNC(=O)COCCOCCNC(=O)COCCOCCNC(=O)CC[C@H](NC(=O)CCCCCCCCCCCCCCCCC(=O)O)C(=O)O)NC(=O)C(C)(C)NC(=O)[C@@H](N)Cc1c[nH]cn1)[C@@H](C)O)C(C)C)C(=O)N[C@@H](C)C(=O)N[C@@](C)(Cc1ccccc1)C(=O)N[C@H](C(=O)N[C@H](C(=O)N[C@@](C)(CCCCN)C(=O)NCC(=O)NCC(N)=O)C(C)C)C(C)C [compound 126] (H-H[Aib]K([AEEA-AEEA-γGlu-C18 diacid])GS[αMeF]TSDV[αMeS]S[αMeF]LEGEAA[αMeK]E[αMeF]IA[αMeF]VV[αMeK]GG-NH2; N-terminus assumed) | ≥ 0.025 | ≥ 0.0254 | ≥ 25000 | ≥ 25400 | ≥ 25400 | ≥ 0.025 | ≥ 0.0254
